Laboratory results published in publication PMC2954055 (Journal of immunology (Baltimore, Md. : 1950), 2009).

Biological target: BRS peptide (biotinylated peptide consisting of just the BRS of CD3 ε) (Mus musculus, UniProt P22646)
Test: solid-phase ELISA, biotinylated peptide, streptavidin-HRP
Format: binding
Conditions: PBS, room temperature, data not shown

Kd (20/80 PI(4)P/PC coated on plate) [nM] | Kd (20/80 PI(4,5)P2/PC coated on plate) [nM] | Substance
~40 |  | PI(4)P
 | ~40 | PI(4,5)P2
